Converted amounts (≈) assume the structure as drawn.

The results in this text go back to ChEMBL document CHEMBL1944520, “Discovery of 3-aryloxy-lactam analogs as potent androgen receptor full antagonists for treating castration resistant prostate cancer” (Bioorg Med Chem Lett, 2012).

For data set [1], the target named is T1, Androgen receptor (Homo sapiens) (UniProt P10275).
T1 sequence (whole entry): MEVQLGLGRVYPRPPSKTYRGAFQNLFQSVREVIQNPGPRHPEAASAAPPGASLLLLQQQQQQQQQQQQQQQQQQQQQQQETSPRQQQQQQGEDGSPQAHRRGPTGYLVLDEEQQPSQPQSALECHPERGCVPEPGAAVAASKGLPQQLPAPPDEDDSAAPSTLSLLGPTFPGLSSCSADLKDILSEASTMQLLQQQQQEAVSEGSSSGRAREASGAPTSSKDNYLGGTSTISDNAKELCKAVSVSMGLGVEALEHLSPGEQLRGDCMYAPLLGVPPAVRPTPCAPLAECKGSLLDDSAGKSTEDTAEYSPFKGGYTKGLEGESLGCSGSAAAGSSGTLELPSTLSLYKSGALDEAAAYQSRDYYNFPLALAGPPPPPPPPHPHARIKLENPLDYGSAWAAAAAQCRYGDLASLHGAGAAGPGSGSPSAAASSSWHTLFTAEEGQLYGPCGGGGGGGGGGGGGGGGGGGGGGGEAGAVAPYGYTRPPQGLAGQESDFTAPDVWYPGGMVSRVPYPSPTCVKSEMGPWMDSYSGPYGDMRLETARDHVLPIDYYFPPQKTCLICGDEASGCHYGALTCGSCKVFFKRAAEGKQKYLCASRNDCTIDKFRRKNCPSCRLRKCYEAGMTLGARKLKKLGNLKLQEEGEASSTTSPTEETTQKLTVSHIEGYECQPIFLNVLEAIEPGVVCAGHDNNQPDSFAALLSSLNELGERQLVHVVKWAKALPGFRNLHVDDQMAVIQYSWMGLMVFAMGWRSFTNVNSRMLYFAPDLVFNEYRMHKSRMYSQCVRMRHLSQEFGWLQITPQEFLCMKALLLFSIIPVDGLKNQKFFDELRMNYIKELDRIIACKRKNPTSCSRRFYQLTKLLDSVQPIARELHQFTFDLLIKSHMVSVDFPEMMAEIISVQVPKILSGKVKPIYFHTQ
The data set is described as follows: Antagonist activity at androgen receptor expressed in human LNAR cells assessed as inhibition of R1881-induced luciferase activity at 1 uM by spectrophotometry. It counts as functional, cell-based.

For data set [2], the target named is T1, Androgen receptor (Homo sapiens). The data set is described as follows: Agonist activity at androgen receptor expressed in human LNAR cells as induction of luciferase activity by spectrophotometry relative to untreated control. It counts as functional, cell-based.
Data set [3] concerns the target T2, Androgen receptor (Homo sapiens, UniProt P10275).
T2 sequence (P10275 whole entry): T1 sequence (whole entry)
The data set is described as follows: Antagonist activity at androgen receptor expressed in human LNAR cells assessed as inhibition of R1881-induced luciferase activity by spectrophotometry. Type of data set: functional, cell-based.

Data set [4] concerns the target T1, Androgen receptor (Homo sapiens). The data set is described as follows: Antagonist activity at androgen receptor expressed in human LNAR cells assessed as inhibition of R1881-induced luciferase activity at 0.1 uM by spectrophotometry. It counts as functional, cell-based.
The subject of data set [5] is Liver microsomes. The data set can be described thus: Unbound intrinsic clearance in human liver microsomes. Type of data set: ADME, Microsome.
Data set [6] concerns Rattus norvegicus. The data set is described as follows: Unbound plasma clearance in iv dosed rat. Type of data set: ADME, organism-based. The following applies: in vivo.
Data set [7] in a line: Oral bioavailability in rat. Type of data set: ADME, organism-based. Particulars: in vivo.
Data set [8] in a line: Solubility of the compound at pH 7.4. Type of data set: physicochemical. Particulars: buffer.
A short description of data set [9]: Fraction unbound in human. Type of data set: ADME, organism-based. The following applies: in vivo.

As for `CCCCN1CC(C)(C)[C@@H](Oc2ccc(C#N)c(C(F)(F)F)c2)C1=O`, the inhibition in [1] stood at 85%. Also, the fold change (FC) in data set [2] was found to be 2.12.

Take `CC1(C)CNC(=O)[C@@H]1Oc1ccc(C#N)c(C(F)(F)F)c1`: the half-maximal inhibitory concentration (IC50) in [3] came to 105 nM. Besides, in [2], the fold change (FC) stood at 1.31.

Regarding `CC(CO)N1CC(C)(C)[C@@H](Oc2ccc(C#N)c(C(F)(F)F)c2)C1=O` (stereo in doubt; 14) [listing 1 of 2 here], in [3], the IC50 turned out to be 371 nM.

For the molecule `CC1(C)CN(CCC#N)C(=O)[C@@H]1Oc1cnc(C#N)c(C(F)(F)F)c1`, the inhibition in [1] was 52%. In [2], the fold change (FC) is 0.89.

For `CC1(C)CN(CC#N)C(=O)[C@@H]1Oc1ccc(C#N)c(C(F)(F)F)c1`, in data set [1], the inhibition was found to be 89%. Moreover, the fold change (FC) in data set [2] came to 2.75.

Turning to `CC(CO)CN1CC(C)(C)[C@@H](Oc2ccc(C#N)c(C(F)(F)F)c2)C1=O` (stereo in doubt; 23) [listing 1 of 2 here], the fold change (FC) in data set [2] was determined as 0.95.

In the case of `CCCN1CC(C)(C)[C@@H](Oc2ccc(C#N)c(C(F)(F)F)c2)C1=O`, the inhibition in data set [1] was found to be 88%. Further, in data set [2], the fold change (FC) is 1.45.

Take `CC(O)(CO)CN1CC(C)(C)[C@@H](Oc2ccc(C#N)c(C(F)(F)F)c2)C1=O` (stereo in doubt; 24): in [1], the inhibition was 17%. The fold change (FC) in data set [2] was 1.01.

As for `CC(O)CN1CC(C)(C)[C@@H](Oc2ccc(C#N)c(C(F)(F)F)c2)C1=O` (single isomer, unassigned) [listing 1 of 2 here], the IC50 in data set [3] came to 977 nM.

Regarding `CC1(C)CN(CCC#N)C(=O)[C@@H]1Oc1cc(C(F)(F)F)c(C#N)cn1`, in data set [1], the inhibition is 47%. Also, in [2], the fold change (FC) is 1.16.

For `CC(O)(CO)CN1CC(C)(C)[C@@H](Oc2ccc(C#N)c(C(F)(F)F)c2)C1=O` (stereo in doubt; 25), in data set [1], the inhibition came to 27%. The fold change (FC) in [2] was found to be 0.92.

As for `C[C@@H](c1nnc(-c2ccccc2)o1)N1CC(C)(C)[C@@H](Oc2ccc(C#N)c(C(F)(F)F)c2)C1=O`, the inhibition in data set [4] was 62%. Moreover, the fold change (FC) in data set [2] turned out to be 3.09. Moreover, the figures for the CL free in [5] and in data set [6] were 43.87 µL/min/mg and 4294 mL/min/kg, respectively. Further, the bioavailability in [7] is 25%. In [8], this molecule gave a solubility of 3.7 µg/mL (≈ 7.86 µM). Moreover, in data set [9], the fraction unbound was 0.0181.

As to `CC(CO)N1CC(C)(C)[C@@H](Oc2ccc(C#N)c(C(F)(F)F)c2)C1=O` (stereo in doubt; 15) [listing 1 of 2 here], the 50% inhibitory concentration (IC50) in data set [3] worked out at 337 nM.

Turning to `CC1(C)CN(CCO)C(=O)[C@@H]1Oc1ccc(C#N)c(C(F)(F)F)c1`, the IC50 in [3] came to 263 nM. The fold change (FC) in data set [2] is 1.03.

Take `CC(c1nnc(-c2cccc(F)c2)o1)N1CC(C)(C)C(Oc2ccc(C#N)c(C(F)(F)F)c2)C1=O` (racemic): the IC50 in [3] amounted to 77 nM. In addition, the fold change (FC) in [2] stood at 1.43. The CL free in data set [5] was 115 µL/min/mg; in data set [6] it was 1585 mL/min/kg. This molecule had a bioavailability in data set [7] of 10%. This molecule showed a solubility in data set [8] of 3.8 µg/mL (≈ 7.78 µM). Moreover, in data set [9], the fraction unbound amounted to 0.00825.

In the case of `CC1(C)CN(CCC#N)C(=O)[C@@H]1Oc1ccc(C#N)c(C(F)(F)F)c1`, the IC50 in [3] was found to be 131 nM. In [2], the fold change (FC) stood at 0.89. Also, the CL free in [5] is 19.1 µL/min/mg; in [6], 170 mL/min/kg. The molecule also came in with a bioavailability in data set [7] of 64%. In data set [8], the solubility came to 57 µg/mL (≈ 162 µM). The molecule also showed a fraction unbound in [9] of 0.226.

Turning to `CC(CO)CN1CC(C)(C)[C@@H](Oc2ccc(C#N)c(C(F)(F)F)c2)C1=O` (stereo in doubt; 23) [listing 2 of 2 here], the IC50 in data set [3] is 371 nM.

In the case of `CC1(C)CN(CCCO)C(=O)[C@@H]1Oc1ccc(C#N)c(C(F)(F)F)c1`, in data set [1], the inhibition amounted to 87%. Further, the fold change (FC) in data set [2] was determined as 1.11.

As for `CC(CO)N1CC(C)(C)[C@@H](Oc2ccc(C#N)c(C(F)(F)F)c2)C1=O` (stereo in doubt; 15) [listing 2 of 2 here], the fold change (FC) in data set [2] was 1.02.

Take `COC(=O)CN1CC(C)(C)C(Oc2ccc(C#N)c(C(F)(F)F)c2)C1=O` (racemic): the concentration for half-maximal inhibition (IC50) in [3] came to 303 nM. Besides, the fold change (FC) in [2] was 1.05.

As to `CC(O)CN1CC(C)(C)[C@@H](Oc2ccc(C#N)c(C(F)(F)F)c2)C1=O` (stereo in doubt; 18) [listing 1 of 2 here], in data set [2], the fold change (FC) was 0.99.

For `CC1(C)CN(C(C)(C)CO)C(=O)[C@@H]1Oc1ccc(C#N)c(C(F)(F)F)c1`, in data set [3], the IC50 was 761 nM. Also, in data set [2], the fold change (FC) was 0.91.

With `CC(O)CN1CC(C)(C)[C@@H](Oc2ccc(C#N)c(C(F)(F)F)c2)C1=O` (stereo in doubt; 18) [listing 2 of 2 here], the IC50 in [3] is 216 nM.

As for `CC(C)(O)CN1CC(C)(C)[C@@H](Oc2ccc(C#N)c(C(F)(F)F)c2)C1=O`, in data set [1], the inhibition is 29%. For the same molecule, the fold change (FC) in data set [2] stood at 0.9.

Regarding `CC(=O)CN1CC(C)(C)[C@@H](Oc2ccc(C#N)c(C(F)(F)F)c2)C1=O`, the IC50 in [3] worked out at 266 nM. Moreover, the fold change (FC) in data set [2] was 0.91.

As for `CC1(C)CN(CCC#N)C(=O)[C@@H]1Oc1ccc(C#N)c(Cl)c1`, in data set [3], the IC50 was determined as 68 nM. For the same molecule, in data set [2], the fold change (FC) worked out at 0.99. The solubility in data set [8] worked out at 159 µg/mL (≈ 500 µM).

For the molecule `CC(O)CN1CC(C)(C)[C@@H](Oc2ccc(C#N)c(C(F)(F)F)c2)C1=O` (single isomer, unassigned) [listing 2 of 2 here], the fold change (FC) in data set [2] is 0.97.

As to `CC(CO)CN1CC(C)(C)[C@@H](Oc2ccc(C#N)c(C(F)(F)F)c2)C1=O` (stereo in doubt; 22), the inhibition in [1] was 96%. The fold change (FC) in data set [2] is 1.01.

As to `CC(CO)N1CC(C)(C)[C@@H](Oc2ccc(C#N)c(C(F)(F)F)c2)C1=O` (stereo in doubt; 14) [listing 2 of 2 here], the fold change (FC) in data set [2] came to 1.06.

For the molecule `CC1(C)CN(CCC#N)C(=O)[C@@H]1Oc1ccc(C#N)cc1`, the inhibition in data set [1] turned out to be 10%. In addition, the fold change (FC) in data set [2] was 0.95.

With `CNC(=O)CN1CC(C)(C)C(Oc2ccc(C#N)c(C(F)(F)F)c2)C1=O` (racemic), the inhibition in data set [1] was determined as 23%. Besides, the fold change (FC) in data set [2] stood at 0.85.

Consider `Cc1nnc(CN2CC(C)(C)[C@@H](Oc3ccc(C#N)c(C(F)(F)F)c3)C2=O)o1`, for which, in [3], the IC50 came out at 633 nM. For the same molecule, the fold change (FC) in [2] came to 0.97. The molecule further had a solubility in data set [8] of 217 µg/mL (≈ 550 µM).

Regarding `CC1(C)CN(Cc2nnc(-c3ccccc3)o2)C(=O)[C@@H]1Oc1ccc(C#N)c(C(F)(F)F)c1`, in [3], the IC50 stood at 71 nM. Moreover, in data set [2], the fold change (FC) amounted to 0.95. The CL free in data set [5] was found to be 19.3 µL/min/mg; in data set [6], 921 mL/min/kg. The molecule further displayed a bioavailability in data set [7] of 10%. In data set [8], this molecule came in with a solubility of 5.9 µg/mL (≈ 12.9 µM). Besides, the fraction unbound in data set [9] was determined as 0.0127.
